Reference: patent US10150728B2, “Alkylene derivatives” (Shionogi & Co., Ltd., priority 2013, dated 2018)

Each compound was assayed against recombinant human ACC2 (Homo sapiens (Human), UniProt O00763) (assay: Measurement of inhibitory activity on human ACC2 (MALDI-TOF MS, acetyl CoA to malonyl CoA conversion)). Conditions: Table 154.
Type: biochemical
Source text: Preparation 1: Preparation of Recombinant Human ACC2
After a cDNA encoding human ACC2 (27 amino acid residue to 2458 amino acid residues from the N-terminus) was cloned from human kidney cDNA library (Clontech), human ACC2 gene containing His-tag sequence at 5′ terminus was inserted into pFastBac1 (Invitrogen). Recombinant baculovirus was generated using Bac-to-Bac baculovirus expression system (Invitrogen) according to the manufacturer's protocol. To express human ACC2, Sf-9 cells were infected with recombinant baculovirus. After infected cells were disrupted, the filtrated lysate was subjected to Ni-affinity chromatography and anion-exchange chromatography. The fractions containing human ACC2 protein were pooled as recombinant human ACC2 solution.
The Measurement of Inhibitory Activity on Human ACC1 and the ACC2
Recombinant human ACC1 and recombinant human ACC2, which were prepared by the method mentioned above, were preincubated with assay buffer solution (50 mM HEPES-KOH (pH 7.4), 10 mM magnesium chloride, 6-10 mM potassium citrate, 4 mM reduced form of glutathione, 1.5 mg/ml bovine serum albumin) for one hour. Then, 0.2 μL of each this invention compound solution (in DMSO) were dispensed to 384-well microplate, 5 μL of the preincubated enzyme solution and 5 μL of substrate solution (50 mM HEPES-KOH (pH 7.4), 1 mM ATP, 0.8 mM acetyl CoA and 25-50 mM potassium bicarbonate) were added to microplate. After centrifugation and shaking, the reaction mixtures were incubated in a humidified box at room temperature for 1 to 3 hours. After the incubation, the enzyme reactions were stopped by the addition of EDTA. Then, after the samples were cocrystallized with CHCA (α-cyano-4-hydroxy cinnamic acid) matrices on MALDI target plate, by using the matrix assist laser […] time-of-flight mass spectrometer (MALDI-TOF MS), samples were measured in reflector negative mode. Deprotonated ions of acetyl CoA (AcCoA) of substrate and malonyl CoA (MalCoA) of the reaction product were detected, then, the conversion rates of acetyl CoA to malonyl CoA was calculated by the intensity of [MalCoA-H]−/(Intensity of [MalCoA-H]−+Intensity of [AcCoA-H]−) using each signal strength. […] In addition, potassium citrate concentrations in assay buffer solution, potassium hydrogen carbonate concentrations in substrate solution and incubation time were adjusted by each lot of enzyme.

Sequence of recombinant human ACC2 (O00763 27-2458): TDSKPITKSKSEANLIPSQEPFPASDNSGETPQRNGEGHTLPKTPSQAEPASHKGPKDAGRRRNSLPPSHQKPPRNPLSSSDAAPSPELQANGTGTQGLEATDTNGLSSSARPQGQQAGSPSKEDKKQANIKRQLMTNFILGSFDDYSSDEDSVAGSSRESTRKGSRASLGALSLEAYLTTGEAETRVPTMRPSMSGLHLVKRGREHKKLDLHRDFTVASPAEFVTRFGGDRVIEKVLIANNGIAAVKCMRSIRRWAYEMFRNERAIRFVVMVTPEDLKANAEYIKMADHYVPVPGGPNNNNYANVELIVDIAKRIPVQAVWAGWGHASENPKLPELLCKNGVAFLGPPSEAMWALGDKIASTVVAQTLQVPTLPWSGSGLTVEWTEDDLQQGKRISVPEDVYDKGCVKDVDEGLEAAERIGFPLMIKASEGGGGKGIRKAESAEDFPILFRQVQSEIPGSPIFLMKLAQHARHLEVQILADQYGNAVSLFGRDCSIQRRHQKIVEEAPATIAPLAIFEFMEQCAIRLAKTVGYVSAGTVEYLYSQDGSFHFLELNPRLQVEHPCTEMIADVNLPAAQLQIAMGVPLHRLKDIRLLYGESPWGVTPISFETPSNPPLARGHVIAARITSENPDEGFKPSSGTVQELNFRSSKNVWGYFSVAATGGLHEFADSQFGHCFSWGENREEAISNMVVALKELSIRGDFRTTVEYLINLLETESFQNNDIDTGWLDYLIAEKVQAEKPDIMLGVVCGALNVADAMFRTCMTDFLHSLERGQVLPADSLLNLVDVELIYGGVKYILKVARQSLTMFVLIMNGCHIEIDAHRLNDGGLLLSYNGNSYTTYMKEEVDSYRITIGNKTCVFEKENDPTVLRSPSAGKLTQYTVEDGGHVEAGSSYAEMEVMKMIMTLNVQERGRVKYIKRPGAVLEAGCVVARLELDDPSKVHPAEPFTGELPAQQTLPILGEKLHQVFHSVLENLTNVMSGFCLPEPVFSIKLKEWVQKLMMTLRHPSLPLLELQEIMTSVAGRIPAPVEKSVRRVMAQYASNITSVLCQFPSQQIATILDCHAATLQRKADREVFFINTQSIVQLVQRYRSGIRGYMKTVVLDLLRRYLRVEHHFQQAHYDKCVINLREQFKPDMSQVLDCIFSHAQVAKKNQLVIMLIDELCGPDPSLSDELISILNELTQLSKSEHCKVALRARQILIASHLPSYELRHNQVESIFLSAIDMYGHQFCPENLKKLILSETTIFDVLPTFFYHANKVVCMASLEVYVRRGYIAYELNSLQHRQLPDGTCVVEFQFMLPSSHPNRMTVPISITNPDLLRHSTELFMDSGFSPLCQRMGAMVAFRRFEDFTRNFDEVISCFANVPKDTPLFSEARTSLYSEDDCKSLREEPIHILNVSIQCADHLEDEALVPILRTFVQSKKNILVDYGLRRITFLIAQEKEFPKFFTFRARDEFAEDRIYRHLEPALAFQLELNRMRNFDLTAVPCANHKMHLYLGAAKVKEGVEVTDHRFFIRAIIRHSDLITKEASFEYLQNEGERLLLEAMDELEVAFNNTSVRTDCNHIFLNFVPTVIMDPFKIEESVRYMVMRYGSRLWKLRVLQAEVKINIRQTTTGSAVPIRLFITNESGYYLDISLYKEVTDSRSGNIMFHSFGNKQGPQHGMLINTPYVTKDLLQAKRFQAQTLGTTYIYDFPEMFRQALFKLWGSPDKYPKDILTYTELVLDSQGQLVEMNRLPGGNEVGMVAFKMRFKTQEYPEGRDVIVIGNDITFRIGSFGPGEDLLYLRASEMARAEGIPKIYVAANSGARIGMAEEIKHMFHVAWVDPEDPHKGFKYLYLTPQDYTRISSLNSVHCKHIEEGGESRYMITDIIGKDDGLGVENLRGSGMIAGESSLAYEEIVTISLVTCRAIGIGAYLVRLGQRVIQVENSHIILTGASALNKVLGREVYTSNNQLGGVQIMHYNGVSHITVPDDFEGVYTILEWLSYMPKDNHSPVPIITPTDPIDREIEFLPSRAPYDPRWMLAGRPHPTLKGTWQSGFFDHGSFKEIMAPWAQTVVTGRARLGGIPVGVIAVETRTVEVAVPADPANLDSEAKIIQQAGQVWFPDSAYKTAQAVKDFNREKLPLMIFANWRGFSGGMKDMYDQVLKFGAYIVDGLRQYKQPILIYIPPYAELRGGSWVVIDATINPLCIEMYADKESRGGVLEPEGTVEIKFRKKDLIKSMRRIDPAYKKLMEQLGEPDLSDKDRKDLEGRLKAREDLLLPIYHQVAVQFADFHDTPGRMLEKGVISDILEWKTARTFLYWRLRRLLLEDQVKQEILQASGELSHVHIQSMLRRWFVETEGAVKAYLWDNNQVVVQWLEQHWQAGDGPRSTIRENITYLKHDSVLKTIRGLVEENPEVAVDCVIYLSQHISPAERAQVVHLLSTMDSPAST

IC50 [µM] | SMILES
0.12 | CCCc1ccc(Oc2ccc(O[C@@H](C)[C@H](C)NC(C)=O)nc2)c(Cl)c1 [Compound I-011]
0.756 | CC(=O)N[C@@H](C)CO[C@H]1CC[C@@H](Oc2ccc3nc(C(C)C)sc3c2F)CC1 [Compound I-044]
0.05 | CCC(F)(F)c1nc2ccc(Oc3cnc(OC[C@H](C)NC(C)=O)cn3)c(Cl)c2s1 [Compound I-033]
0.221 | CC(=O)N[C@@H](C)COc1cnc(Oc2ccc3nc(N4CCC(F)(F)CC4)ncc3c2Cl)cn1 [Compound I-073]
0.502 | CCCc1ccc(Oc2cnc(OC[C@H](C)NC(C)=O)cn2)c(Cl)c1 [Compound I-021]

The remaining lines, values behind:

SMILES | IC50 [µM]
CCOc1nc2ccc(OC[C@H]3C[C@H](OC[C@H](C)NC(C)=O)C3)cc2s1 [Compound I-101] | 0.026
CC(=O)N[C@@H](C)COc1ccc(Oc2ccc3c(c2Cl)CCN(C(=O)OC(C)(C)C)C3)cn1 [Compound I-022] | 1.25
CC(=O)N[C@@H](C)CO[C@H]1CC[C@H](Oc2ccc3nc(C(C)C)oc3c2F)CC1 [Compound I-062] | 0.024

Same assay, conditions: Tables 155-159

IC50 [µM] | SMILES
0.066 | CC(=O)N[C@@H](C)CO[C@H]1C[C@](F)(COc2ccc3nc(OC(C)CF)sc3n2)C1 (stereo partly shown) [Compound I-202]
0.258 | COc1c(-c2ccc(F)cc2)ccnc1OC[C@H]1C[C@H](OC[C@H](C)NC(C)=O)C1 [Compound I-379]
0.146 | CC(=O)N[C@@H](C)CO[C@H]1CC[C@H](Oc2ccc3nc(O[C@H]4C[C@H](C#N)C4)sc3c2F)CC1 [Compound I-161]
0.073 | CCN(C)c1nc2ccc(O[C@H]3CC[C@H](OC[C@H](C)NC(C)=O)CC3)c(F)c2s1 [Compound I-190]
0.129 | CC(=O)N[C@@H](C)CO[C@H]1CC[C@H](Oc2nc3ccc(C4CC4)cc3n2C)CC1 [Compound I-574]
0.081 | CCCOc1nc2ccc(OC[C@H]3C[C@H](OC[C@H](C)NC(C)=O)C3)nc2n1C [Compound I-483]
0.009 | CC(=O)N[C@@H](C)CO[C@H]1CC[C@H](Oc2nc3c(Cl)cc(Oc4ccccc4)cc3n2C)CC1 [Compound I-649]
0.158 | COc1cc(-c2ncc(F)cn2)cnc1O[C@H]1CC[C@H](OC[C@H](C)NC(C)=O)CC1 [Compound I-527]
0.077 | CC(=O)N[C@@H](C)CO[C@H]1CC[C@H](Oc2ncnc(OCc3ccc(F)cn3)c2Cl)CC1 [Compound I-446]
0.016 | CC(=O)N[C@@H](C)CO[C@H]1C[C@H](COc2ccc3nc(C(C)C)sc3n2)C1 [Compound I-135]
0.225 | CCOc1ccc2nc(O[C@H]3CC[C@H](OC[C@H](C)NC(C)=O)CC3)n(C3CC3)c2c1 [Compound I-568]
0.08 | CC(=O)N[C@@H](C)CO[C@H]1C[C@H](COc2nccc(-n3cc(C(F)(F)F)cn3)c2Cl)C1 [Compound I-327]
0.022 | CC(=O)N[C@@H](C)CO[C@H]1CC[C@H](Oc2ccc3nc(OC4CCC(F)(F)CC4)n(C)c3n2)CC1 [Compound I-511]
0.024 | CC(=O)N[C@@H](C)CO[C@H]1CC[C@H](Oc2ccc3nc(OCC4CC4)n(C)c3n2)CC1 [Compound I-496]
0.012 | CC(=O)N[C@@H](C)CO[C@H]1C[C@H](COc2ccc3nc(C(C)(F)F)sc3n2)C1 [Compound I-147]
0.022 | CC(=O)N[C@@H](C)CO[C@H]1CC[C@H](Oc2ncc3nc(N4CC(F)C4)sc3c2F)CC1 [Compound I-235]
0.133 | CC(=O)N[C@@H](C)CO[C@H]1CC[C@H](Oc2nc3c(C)cc(OCC(F)F)cc3n2C)CC1 [Compound I-709]
0.11 | CC(=O)N[C@@H](C)CO[C@H]1CC[C@H](Oc2nc3cnc(Oc4ccccc4)cc3n2C)CC1 [Compound I-592]
0.131 | CC(=O)N[C@@H](C)CO[C@H]1C[C@H](COc2ncnc(OCc3cnccn3)c2Cl)C1 [Compound I-406]
0.004 | C[C@@H](CO[C@H]1CC[C@H](Oc2nc3c(F)cc(OC4CC4)c(F)c3n2C)CC1)NC(=O)CC#N [Compound I-729]
0.118 | CC(=O)N[C@@H](C)CO[C@H]1C[C@H](COc2ncnc(NCc3cccc(C#N)c3)c2Cl)C1 [Compound I-343]
0.14 | CC(=O)N[C@@H](C)CO[C@H]1CC[C@H](Oc2nc3c(Br)cc(OCC(F)F)cc3n2C)CC1 [Compound I-680]
0.11 | CC(=O)N[C@@H](C)CO[C@H]1CC[C@H](Oc2ccc3nc(CC4CC4)n(C)c3n2)CC1 [Compound I-512]

The remaining lines, values behind:

SMILES | IC50 [µM]
CC(=O)N[C@@H](C)CC[C@H]1CC[C@H](Oc2nc3cnc(OCC(F)F)c(Cl)c3n2C)CO1 [Compound I-657] | 0.014
CC(=O)N[C@@H](C)CO[C@H]1C[C@H](COc2ccc3nc(OC[C@@H](C)F)sc3n2)C1 [Compound I-306] | 0.015
CC(=O)N[C@@H](C)CO[C@H]1C[C@H](COc2nccc(OCC3CC3)c2Cl)C1 [Compound I-314] | 0.025
CC(=O)N[C@@H](C)CO[C@H]1C[C@H](COc2ncnc3c2ccn3CC2CC2)C1 [Compound I-359] | 0.021
CC(=O)N[C@@H](C)CO[C@H]1CC[C@H](Oc2nc3ccc(OCC(F)(F)F)cc3n2C)CC1 [Compound I-571] | 0.166
CC(=O)N[C@@H](C)CO[C@H]1CC[C@H](Oc2nc3c(F)cc(Br)cc3n2C)CC1 [Compound I-622] | 0.072
CC(=O)N[C@@H](C)CO[C@H]1CC[C@H](Oc2ncc(-c3ncc(Cl)cn3)cc2C#N)CC1 [Compound I-535] | 0.03
CC(=O)N[C@@H](C)CO[C@H]1CC[C@H](Oc2nc3cnc(OCC(F)F)c(Cl)c3n2C)CC1 [Compound I-722] | 0.009
CC(=O)N[C@@H](C)CO[C@H]1CC[C@H](Oc2cc3sc(OC(C)C)nc3cc2Cl)CC1 [Compound I-114] | 0.193
CC(=O)N[C@@H](C)CO[C@H]1C[C@H](COc2ccc3nc(OC4CC4)sc3n2)C1 [Compound I-172] | 0.013
CC(=O)N[C@@H](C)CO[C@H]1C[C@H](COc2ccc3nc(N4CCCC4)sc3c2F)C1 [Compound I-270] | 0.116
COc1ccc2nc(O[C@H]3CC[C@H](OC[C@H](C)NC(C)=O)CC3)n(C)c2c1F [Compound I-599] | 0.023
COc1ccc2c(c1)nc(O[C@H]1CC[C@H](OC[C@H](C)NC(C)=O)CC1)n2C [Compound I-570] | 0.935
CC(=O)N[C@@H](C)CO[C@H]1CC[C@H](Oc2nc3c(C#N)cc(OCC(F)F)c(F)c3n2C)CC1 [Compound I-653] | 0.065
CC(=O)N[C@@H](C)CO[C@H]1C[C@H](COc2nc3sc(OCC(F)F)nc3cc2F)C1 [Compound I-180] | 0.021
CC(=O)N[C@@H](C)CO[C@H]1CC[C@H](Oc2ccc3nc(OC4(C)CC4)n(C)c3n2)CC1 [Compound I-502] | 0.062
C[C@@H](CO[C@H]1CC[C@H](Oc2ncc(-c3ncc(F)cn3)cc2F)CC1)NC(N)=O [Compound I-538] | 0.071
CC(=O)N[C@@H](C)CO[C@H]1C[C@H](COc2nccc3c2ccn3Cc2ccccc2)C1 [Compound I-329] | 0.014
CC(=O)N[C@@H](C)CO[C@H]1CC[C@H](Oc2ncc3nc(OC4CC4)sc3c2F)CC1 [Compound I-238] | 0.004
CC(=O)N[C@@H](C)CO[C@H]1C[C@H](COc2ncnc(OC(C)c3ccccc3)c2Cl)C1 (stereo partly shown) [Compound I-341] | 0.119
CC(=O)N[C@@H](C)CO[C@H]1C[C@H](COc2ccc3nc(N4CC(F)C4)sc3n2)C1 [Compound I-256] | 0.039
